From patent US12297179B2, “Crystalline and salt forms of an organic compound and pharmaceutical compositions thereof” (Servier Pharmaceuticals LLC, priority 2018, dated 2025)
Structures can show the parent of a compound that is named as a salt. Marks after values point to notes of the source that are not given here. Each block holds one compound with its values, some of them ahead of it.

Legend:
[1] = Thermodynamic stability: slurry competition between Tris salt Forms A and C; format: physicochemical; conditions: DMSO/EtOH (1:8, v/v) and EtOH, 5° C./RT/50° C./75° C., 7 days
Procedure: The thermodynamic stability relationship between Tris salt Forms A and C was investigated via slurry competition experiments in 2 process related solvent systems, DMSO/EtOH (1:8, v/v) and EtOH at 4 temperature conditions (5° C./RT/50° C./75° C.). Two stages of slurry competition experiments were conducted, of which the first stage included temperature as a variable and the second stage used newly opened reagents to minimize the effect of absorbed moisture. Typical experimental procedures are described below.
About 5-10 mg of crystalline Tris salt Form C was first dissolved in ˜1.0 mL of corresponding solvent to form nearly saturated solution under corresponding temperature (equilibrating method: stirring magnetically, ˜1000 rpm, ˜2 hrs). Then ˜15 mg of each form (crystalline Tris salt Forms A and C) was physically mixed, followed by addition of the nearly saturated solution to form a suspension. The suspensions were then stirred (˜1000 rpm) under corresponding temperature for 7 days (a small amount of solids were sampled at 2 day point in the second stage experiments). The obtained solids were isolated via centrifugation (10000 rpm, 2 mins) and tested by XRPD to confirm the form.

[2] = Kinetic solubility in bio-relevant media (SGF/FaSSGF, FaSSIF, FeSSIF) and H2O at 37° C., with pH of supernatant; format: physicochemical; conditions: for solubility at 15 min / solubility at 30 min / solubility at 1 h / solubility at 2 h / solubility at 24 h: 37 °C, thermodynamic from solid; for Solubility: 37° C.
Procedure: (§1) Weigh 100 mg of sodium chloride into a 50-mL volumetric flask. Add appropriate volume of purified water and sonicate until all solids are completely dissolved. Add sufficient purified water closely to the target volume and adjust to pH 1.6. Weigh 3 mg of FaSSIF/FeSSIF/FaSSGF powder into the volumetric flask and sonicate until the powder is completely dissolved. Dilute to target volume with purified water and mix well.
as §1, with “0.170 g of monobasic sodium phosphate, 0.021 g of sodium hydroxide and 0.31 g” for “100 mg”, “6.5.” for “1.6.”, “110” for “3”
as §1, with “0.41 mL of glacial acetic acid, 0.202 g of sodium hydroxide and 0.594 g” for “100 mg”, “5.0.” for “1.6.”, “560” for “3”
An Agilent 1260 HPLC with DAD detector was utilized and detailed chromatographic conditions for solubility analysis are listed in Table 5.
Kinetic solubility of Tris salt Form A and free acid Form D were measured in three bio-relevant media (SGF, FaSSIF and FeSSIF) at 37° C. In details, ˜30 mg solids were suspended into 4.0 mL of each medium initially and equilibrated via shaking (500 rpm) at 37° C. Approximately 0.8 mL suspension was extracted at each time point of 15/30/60/120 mins and 24 hrs. The supernatant and precipitate were separated by centrifugation (10000 rpm, ˜3 mins) followed by concentration (HPLC) and pH measurement for supernatant and the corresponding solid forms were characterized by XRPD.
Due to the thermodynamic stability of Tris salt Form C, further evaluation was conducted, including kinetic solubility in three bio-relevant media (FaSSGF/FaSSF/FeSSIF) and H2O at 37° C.

[3] = Hygroscopicity by dynamic vapor sorption (DVS); format: physicochemical
Procedure: DVS was measured via a SMS (Surface Measurement Systems) DVS Intrinsic. The relative humidity at 25° C. was calibrated against deliquescence point of LiCl, Mg(NO3)2 and KCl.

[4] = Sprague Dawley, rat, in vivo, po, 100 mg/kg
Procedure: The objective of the pharmacokinetic (PK) studies was to determine the pharmacokinetics of the different forms of Compound 1 in intact Sprague Dawley rats after oral (PO) administration. […] Food and water were available to all animals ad libitum and Compound 1 or Tris salt Form C of Compound was dosed orally at 100 mg/kg (100 mL/kg). Approximately 110 μL of whole blood was collected via tail vein bleeding predose and at 0.083, 0.25, 0.5, 1, 2, 4, 8, 12 and 24 hours postdose into tubes containing the anticoagulant K2EDTA, processed to obtain plasma, and stored at approximately −70° C. until analysis. Concentrations of the active pharmaceutical ingredient in plasma samples were quantified using a nonvalidated liquid chromatography with tandem mass spectrometry (LC-MS/MS) method. Pharmacokinetic analysis of the individual plasma concentration data was performed using WinNonlin© (Version 6.4; Pharsight Corporation, Mountain View, CA, USA). Pharmacokinetic parameters were estimated using a noncompartmental extravascular models method. Area under the concentration-time curve (AUC) was calculated using the linear trapezoidal rule. […] Concentrations that were <80% of the LLOQ were designated as BLQ.

form after slurry competition (XRPD), thermodynamic stability [1]: thermodynamically more stable | solubility at 15 min ([2]; FaSSIF, pH 6.5, fassif, Table 12, FaSSIF, 15 min): 390 µg/mL | solubility at 30 min ([2]; FaSSIF, pH 6.5, fassif, Table 12, FaSSIF, 30 min): 320 µg/mL | solubility at 1 h ([2]; FaSSIF, pH 6.5, fassif, Table 12, FaSSIF, 1 h): 250 µg/mL | solubility at 2 h ([2]; FaSSIF, pH 6.5, fassif, Table 12, FaSSIF, 2 h): 220 µg/mL | solubility at 24 h ([2]; FaSSIF, pH 6.5, fassif, Table 12, FaSSIF, 24 h): 170 µg/mL | solubility at 15 min ([2]; FeSSIF, pH 5, fessif, Table 12, FeSSIF, 15 min): 330 µg/mL | solubility at 30 min ([2]; FeSSIF, pH 5, fessif, Table 12, FeSSIF, 30 min): 270 µg/mL | solubility at 1 h ([2]; FeSSIF, pH 5, fessif, Table 12, FeSSIF, 1 h): 50 µg/mL | solubility at 2 h ([2]; FeSSIF, pH 5, fessif, Table 12, FeSSIF, 2 h): 40 µg/mL | solubility at 24 h ([2]; FeSSIF, pH 5, fessif, Table 12, FeSSIF, 24 h): 40 µg/mL | Solubility ([2]; Table 12, FaSSGF, 15 min): <LOD | Solubility ([2]; Table 12, FaSSGF, 30 min): <LOD | Solubility ([2]; Table 12, FaSSGF, 1 h): <LOD | Solubility ([2]; Table 12, FaSSGF, 2 h): <LOD | Solubility ([2]; Table 12, FaSSGF, 24 h): <LOD | pH ([2]; Table 12, FaSSGF, 15 min): 3.0 | pH ([2]; Table 12, FaSSGF, 30 min): 3.1 | pH ([2]; Table 12, FaSSGF, 1 h): 4.0 | pH ([2]; Table 12, FaSSGF, 2 h): 4.1 | pH ([2]; Table 12, FaSSGF, 24 h): 3.1 | pH ([2]; Table 12, FaSSIF, 15 min): 7.7 | pH ([2]; Table 12, FaSSIF, 30 min): 7.8 | pH ([2]; Table 12, FaSSIF, 1 h): 7.8 | pH ([2]; Table 12, FaSSIF, 2 h): 7.8 | pH ([2]; Table 12, FaSSIF, 24 h): 7.9 | pH ([2]; Table 12, FeSSIF, 15 min): 5.5* | pH ([2]; Table 12, FeSSIF, 30 min): 5.6* | pH ([2]; Table 12, FeSSIF, 1 h): 5.6 | pH ([2]; Table 12, FeSSIF, 2 h): 5.6 | pH ([2]; Table 12, FeSSIF, 24 h): 5.6 | pH ([2]; Table 12, H2O, 15 min): 8.9 | pH ([2]; Table 12, H2O, 30 min): 9.0 | pH ([2]; Table 12, H2O, 1 h): 9.0 | pH ([2]; Table 12, H2O, 2 h): 9.0 | pH ([2]; Table 12, H2O, 24 h): 9.2 | solubility at 15 min ([2]; water, Table 12, H2O, 15 min): 810 µg/mL | solubility at 30 min ([2]; water, Table 12, H2O, 30 min): 820 µg/mL | solubility at 1 h ([2]; water, Table 12, H2O, 1 h): 720 µg/mL | solubility at 2 h ([2]; water, Table 12, H2O, 2 h): 750 µg/mL | solubility at 24 h ([2]; water, Table 12, H2O, 24 h): 400 µg/mL | solid form after the DVS test (XRPD) ([3]; 25° C.): remained as Tris salt Form C | moisture uptake ([3]; DVS, humidity varied from 0% RH to 80% RH at 25° C.): ~0.04 wt %
Compound: Cc1ccccc1-c1ccc(-c2cc(C(=O)O)c3c(c2)nnn3C)cc1 [Tris salt Form C]

Cmax, fold higher than best free acid batch Lot B [4]: ~1.5 fold | Tmax, fold lower than best free acid batch Lot B [4]: ~2 fold
Compound: Cc1ccccc1-c1ccc(-c2cc(C(=O)O)c3c(c2)nnn3C)cc1 [Tris salt, 1-methyl-5-(2′-methyl-[1,1′-biphenyl]-yl)-1H-benzo[d][1,2,3]triazole-7-carboxylate Tris salt]
